In ChEMBL document CHEMBL5346961, “Discovery and Evaluation of 3-Quinoxalin Urea Derivatives as Potent, Selective, and Orally Available ATM Inhibitors Combined with Chemotherapy for the Treatment of Cancer via Goal-Oriented Molecule Generation and Virtual Screening” (J Med Chem, 2023):
Values belong to the molecule of their own block, whether it stands above or below them. Activity calls are given as the source filed them. The rule behind the calls is not given here.

Columns and labels:
[1] = system: HCT-116; experiment: Induction of DNA damage in human HCT-116 cells assessed as upregulation of ATM phosphorylation at S1981 residue at 25 uM measured after 4 hrs by Western blot analysis; format: functional, cell-based
[2] = system: SW-620; experiment: Inhibition of colony formation in human SW620 cells measured after 1 week by crystal violet staining based […] assay; format: functional, cell-based; conditions: SW-620, 168 h
[3] = system: MCF7; experiment: cells; conditions: Homo sapiens, MCF7, 144 h
[4] = Toxicity in BALB/c nude mouse assessed as reduction in body weight at 40 mg/kg, ip administered once weekly for 21 days relative to control; format: organism-based; set-up: scale not given: the % may be the effect or the level left; conditions: in vivo, 504 h, time 21 day
[5] = system: HCT-116; experiment: Induction of apoptosis in human HCT-116 cells assessed as late apoptotic cells at 5 uM measured after 2 days by AnnexinV-FITC/PI staining based analysis (reference value: 12.2%); format: functional; conditions: time 2 day
[6] = system: SW-620; experiment: Antitumor activity against human SW620 cells xenografted in BALB/c nude mouse model assessed as tumor growth inhibition at 40 mg/kg, ip administered once weekly for 21 days by caliper method relative to control; format: functional; conditions: SW-620, 504 h, time 21 day, read-out: TGI
[7] = system: HCT-116; experiment: Induction of apoptosis in human HCT-116 cells assessed as early apoptotic cells at 5 uM measured after 2 days by AnnexinV-FITC/PI staining based analysis (reference value: 14.4%); format: functional; conditions: time 2 day
[8] = system: SW-620; experiment: Antiproliferative activity against human SW620 cells assessed as reduction in cell viability measured after 6 days by MTT assay; format: functional, cell-based; conditions: SW-620, 144 h
[9] = system: HCT-116; experiment: Induction of DNA damage in human HCT-116 cells assessed as upregulation of gammaH2AX at 25 uM measured after 4 hrs by Western blot analysis; format: functional, cell-based
[10] = system: HCT-116; experiment: Induction of apoptosis in human HCT-116 cells assessed as necrotic cells at 5 uM measured after 2 days by AnnexinV-FITC/PI staining based analysis (reference value: 0.64%); format: functional; conditions: time 2 day
[11] = system: HCT-116; experiment: Induction of apoptosis in human HCT-116 cells assessed as viable cells at 5 uM measured after 2 days by AnnexinV-FITC/PI staining based analysis (reference value: 72.8%); format: functional; conditions: HCT-116, 48 h, time 2 day, read-out: Activity
[12] = system: HCT-116; experiment: Induction of DNA damage in human HCT-116 cells assessed as upregulation of p21 at T145 residue at 25 uM measured after 4 hrs by Western blot analysis; format: functional, cell-based
[13] = target: DNA-dependent protein kinase catalytic subunit (Homo sapiens, UniProt P78527); experiment: Inhibition of DNA-PK (unknown origin)
Chain of DNA-dependent protein kinase catalytic subunit (P78527 whole entry, canonical isoform): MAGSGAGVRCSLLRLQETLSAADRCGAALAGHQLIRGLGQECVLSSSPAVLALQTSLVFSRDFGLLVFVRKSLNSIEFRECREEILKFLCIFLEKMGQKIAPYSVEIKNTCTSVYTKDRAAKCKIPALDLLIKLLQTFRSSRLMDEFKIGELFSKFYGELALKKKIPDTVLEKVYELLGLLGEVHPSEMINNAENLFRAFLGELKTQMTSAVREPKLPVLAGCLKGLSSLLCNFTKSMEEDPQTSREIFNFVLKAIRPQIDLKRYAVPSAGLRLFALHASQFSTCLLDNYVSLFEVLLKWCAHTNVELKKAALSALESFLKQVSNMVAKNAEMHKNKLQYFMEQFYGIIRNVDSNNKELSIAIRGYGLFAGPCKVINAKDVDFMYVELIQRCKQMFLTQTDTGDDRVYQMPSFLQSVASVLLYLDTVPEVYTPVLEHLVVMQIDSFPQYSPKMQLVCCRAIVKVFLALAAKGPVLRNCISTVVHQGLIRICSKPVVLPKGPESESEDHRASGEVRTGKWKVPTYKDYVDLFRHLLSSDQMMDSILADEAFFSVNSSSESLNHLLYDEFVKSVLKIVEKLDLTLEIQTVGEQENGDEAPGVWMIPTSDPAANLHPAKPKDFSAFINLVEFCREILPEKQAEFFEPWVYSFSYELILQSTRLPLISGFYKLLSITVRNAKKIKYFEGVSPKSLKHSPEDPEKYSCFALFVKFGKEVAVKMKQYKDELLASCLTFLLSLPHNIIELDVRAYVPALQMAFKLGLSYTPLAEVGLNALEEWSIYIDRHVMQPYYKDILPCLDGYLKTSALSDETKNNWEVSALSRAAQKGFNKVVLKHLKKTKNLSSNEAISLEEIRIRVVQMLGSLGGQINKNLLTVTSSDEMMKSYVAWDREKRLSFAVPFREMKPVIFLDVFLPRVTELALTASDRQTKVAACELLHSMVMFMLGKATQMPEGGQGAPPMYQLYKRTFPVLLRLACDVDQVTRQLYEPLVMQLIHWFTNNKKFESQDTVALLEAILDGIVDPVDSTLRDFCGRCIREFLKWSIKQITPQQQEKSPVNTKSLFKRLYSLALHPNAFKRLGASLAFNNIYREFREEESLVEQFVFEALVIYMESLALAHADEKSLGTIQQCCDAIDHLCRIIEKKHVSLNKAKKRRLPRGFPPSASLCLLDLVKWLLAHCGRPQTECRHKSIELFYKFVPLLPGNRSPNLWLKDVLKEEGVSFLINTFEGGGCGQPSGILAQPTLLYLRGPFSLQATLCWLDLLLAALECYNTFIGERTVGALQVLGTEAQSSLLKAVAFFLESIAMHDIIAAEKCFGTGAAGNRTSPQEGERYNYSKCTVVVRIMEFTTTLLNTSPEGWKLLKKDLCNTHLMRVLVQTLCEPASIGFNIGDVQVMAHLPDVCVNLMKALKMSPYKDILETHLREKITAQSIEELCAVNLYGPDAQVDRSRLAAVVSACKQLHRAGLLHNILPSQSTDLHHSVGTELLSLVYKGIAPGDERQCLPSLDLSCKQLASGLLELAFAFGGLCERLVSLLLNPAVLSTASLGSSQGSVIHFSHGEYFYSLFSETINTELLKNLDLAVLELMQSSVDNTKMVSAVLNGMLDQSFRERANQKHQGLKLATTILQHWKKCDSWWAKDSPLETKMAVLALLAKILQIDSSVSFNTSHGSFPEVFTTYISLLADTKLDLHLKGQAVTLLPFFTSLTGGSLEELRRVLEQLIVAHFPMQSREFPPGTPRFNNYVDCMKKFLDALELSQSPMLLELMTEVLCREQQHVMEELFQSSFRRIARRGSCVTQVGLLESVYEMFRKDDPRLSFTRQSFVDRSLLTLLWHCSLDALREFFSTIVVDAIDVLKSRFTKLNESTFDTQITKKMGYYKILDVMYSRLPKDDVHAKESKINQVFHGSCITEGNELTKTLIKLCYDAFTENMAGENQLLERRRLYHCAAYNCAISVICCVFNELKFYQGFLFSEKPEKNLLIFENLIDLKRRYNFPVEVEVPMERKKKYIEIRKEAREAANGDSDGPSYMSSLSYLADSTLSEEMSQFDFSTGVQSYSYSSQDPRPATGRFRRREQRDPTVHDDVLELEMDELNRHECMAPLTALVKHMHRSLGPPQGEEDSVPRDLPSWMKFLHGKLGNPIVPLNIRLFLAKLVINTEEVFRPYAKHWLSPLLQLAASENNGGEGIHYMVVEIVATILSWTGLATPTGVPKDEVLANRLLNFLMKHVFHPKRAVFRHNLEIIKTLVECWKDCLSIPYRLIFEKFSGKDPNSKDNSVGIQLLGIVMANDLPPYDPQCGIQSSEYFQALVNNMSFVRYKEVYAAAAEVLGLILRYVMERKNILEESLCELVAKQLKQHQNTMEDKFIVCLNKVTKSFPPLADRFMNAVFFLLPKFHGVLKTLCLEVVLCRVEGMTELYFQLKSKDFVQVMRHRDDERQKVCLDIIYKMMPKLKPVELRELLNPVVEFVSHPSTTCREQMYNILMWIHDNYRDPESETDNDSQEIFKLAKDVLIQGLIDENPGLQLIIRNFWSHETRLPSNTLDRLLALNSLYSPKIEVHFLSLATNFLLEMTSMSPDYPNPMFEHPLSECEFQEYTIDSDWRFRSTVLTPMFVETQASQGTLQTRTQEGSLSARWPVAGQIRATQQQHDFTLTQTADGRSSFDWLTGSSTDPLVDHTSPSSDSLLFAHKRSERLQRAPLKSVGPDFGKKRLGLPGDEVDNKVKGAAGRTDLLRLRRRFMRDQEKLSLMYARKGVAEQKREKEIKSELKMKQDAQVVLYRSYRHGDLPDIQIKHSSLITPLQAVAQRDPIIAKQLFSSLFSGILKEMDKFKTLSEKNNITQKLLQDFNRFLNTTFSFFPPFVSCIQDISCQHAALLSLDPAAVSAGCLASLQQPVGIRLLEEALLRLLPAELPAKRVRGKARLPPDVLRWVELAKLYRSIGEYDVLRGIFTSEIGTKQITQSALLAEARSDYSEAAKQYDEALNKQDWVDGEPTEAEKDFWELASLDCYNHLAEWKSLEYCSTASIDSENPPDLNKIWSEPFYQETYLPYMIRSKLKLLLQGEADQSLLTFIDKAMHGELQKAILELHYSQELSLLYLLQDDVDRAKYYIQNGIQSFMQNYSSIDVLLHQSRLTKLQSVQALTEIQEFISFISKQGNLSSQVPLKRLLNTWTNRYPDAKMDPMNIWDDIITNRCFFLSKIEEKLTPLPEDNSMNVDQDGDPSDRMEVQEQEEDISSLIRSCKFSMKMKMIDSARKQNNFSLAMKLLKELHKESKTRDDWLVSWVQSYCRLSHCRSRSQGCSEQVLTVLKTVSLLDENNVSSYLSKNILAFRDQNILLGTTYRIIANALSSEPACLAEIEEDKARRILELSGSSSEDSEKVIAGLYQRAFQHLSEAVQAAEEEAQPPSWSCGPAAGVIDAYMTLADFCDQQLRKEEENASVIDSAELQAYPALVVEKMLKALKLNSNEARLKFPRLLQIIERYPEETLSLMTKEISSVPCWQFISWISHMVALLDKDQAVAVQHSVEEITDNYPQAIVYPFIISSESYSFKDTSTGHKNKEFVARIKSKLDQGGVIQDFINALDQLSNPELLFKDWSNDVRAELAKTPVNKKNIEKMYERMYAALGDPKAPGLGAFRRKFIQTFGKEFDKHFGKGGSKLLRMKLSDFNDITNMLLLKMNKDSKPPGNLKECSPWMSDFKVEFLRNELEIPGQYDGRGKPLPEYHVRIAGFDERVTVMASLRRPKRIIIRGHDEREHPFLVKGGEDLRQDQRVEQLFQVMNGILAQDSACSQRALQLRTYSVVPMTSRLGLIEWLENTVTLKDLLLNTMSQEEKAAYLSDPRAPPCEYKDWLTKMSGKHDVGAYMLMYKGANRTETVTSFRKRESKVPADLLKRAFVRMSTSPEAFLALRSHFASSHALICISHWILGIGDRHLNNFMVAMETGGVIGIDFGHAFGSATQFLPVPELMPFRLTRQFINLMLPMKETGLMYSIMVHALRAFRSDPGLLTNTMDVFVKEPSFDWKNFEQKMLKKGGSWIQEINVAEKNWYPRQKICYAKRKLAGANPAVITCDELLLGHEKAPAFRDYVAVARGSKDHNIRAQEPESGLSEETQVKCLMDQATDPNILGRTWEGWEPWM

[14] = target: Phosphatidylinositol 4,5-bisphosphate 3-kinase catalytic subunit alpha isoform (Homo sapiens, UniProt P42336); experiment: Inhibition of PIK3alpha (unknown origin)
Chain of Phosphatidylinositol 4,5-bisphosphate 3-kinase catalytic subunit alpha isoform (P42336 whole entry, canonical isoform): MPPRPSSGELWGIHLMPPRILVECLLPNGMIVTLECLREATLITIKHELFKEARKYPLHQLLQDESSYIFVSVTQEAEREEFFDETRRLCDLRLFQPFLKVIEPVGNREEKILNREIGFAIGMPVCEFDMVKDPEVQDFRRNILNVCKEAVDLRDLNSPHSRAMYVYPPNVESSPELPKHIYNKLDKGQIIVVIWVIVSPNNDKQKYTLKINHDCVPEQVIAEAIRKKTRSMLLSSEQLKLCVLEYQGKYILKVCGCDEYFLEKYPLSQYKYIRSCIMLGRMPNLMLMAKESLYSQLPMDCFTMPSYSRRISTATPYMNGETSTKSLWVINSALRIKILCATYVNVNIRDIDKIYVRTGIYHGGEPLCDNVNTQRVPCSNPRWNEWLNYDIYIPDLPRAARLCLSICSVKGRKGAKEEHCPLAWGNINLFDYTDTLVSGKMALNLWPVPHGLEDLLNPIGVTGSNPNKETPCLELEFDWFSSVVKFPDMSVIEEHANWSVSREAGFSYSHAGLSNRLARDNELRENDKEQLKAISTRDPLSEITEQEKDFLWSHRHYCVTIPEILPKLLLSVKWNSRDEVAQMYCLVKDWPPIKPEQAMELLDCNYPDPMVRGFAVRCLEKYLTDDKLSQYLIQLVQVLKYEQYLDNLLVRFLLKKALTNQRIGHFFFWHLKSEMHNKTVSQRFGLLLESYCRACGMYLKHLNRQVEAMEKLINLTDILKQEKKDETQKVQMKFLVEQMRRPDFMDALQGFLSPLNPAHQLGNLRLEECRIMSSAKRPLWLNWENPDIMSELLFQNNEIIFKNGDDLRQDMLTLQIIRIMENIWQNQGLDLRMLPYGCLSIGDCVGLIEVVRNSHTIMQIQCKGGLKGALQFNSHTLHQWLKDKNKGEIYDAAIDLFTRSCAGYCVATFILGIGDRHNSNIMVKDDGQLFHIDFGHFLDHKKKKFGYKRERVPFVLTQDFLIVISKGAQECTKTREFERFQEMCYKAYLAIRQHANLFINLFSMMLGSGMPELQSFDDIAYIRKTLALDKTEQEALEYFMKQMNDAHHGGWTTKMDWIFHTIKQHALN

[15] = target: Serine-protein kinase ATM (Homo sapiens, UniProt Q13315); experiment: Inhibition of flag tagged- ATM (unknown origin) expressed in Escherichia coli BL21 incubated for 20 mins in presence of ATP
[16] = Inhibition of PIK3 (unknown origin); set-up: species or system Homo sapiens
[17] = target: Serine/threonine-protein kinase ATR (Homo sapiens, UniProt Q13535); experiment: Inhibition of flag tagged- ATR (unknown origin) expressed in Escherichia coli BL21 incubated for 20 mins in presence of ATP

IC50 [2]: 230 nM
IC50 [3]: 910 nM
IC50 [8]: 980 nM
Compound: CCc1c2c(nc3ccc(OC(=O)N4CCC(N5CCCCC5)CC4)cc13)-c1cc3c(c(=O)n1C2)COC(=O)[C@]3(O)CC [IRINOTECAN]
Activity [1]: Active
Activity [4]: < 12%
Activity [5]: 19.9%
inhibition in vivo at 40 mg/kg [6]: 69.2%
Activity [7]: 26%
Activity [9]: inactive
Activity [10]: 1.7%
viability at 5 µM [11]: 52.3%
Activity [12]: Active

IC50 [13]: 36 nM
IC50 [14]: 170 nM
IC50 [15]: 545 nM
Compound: CC(C)(C#N)c1ccc(N2C(=O)OCc3cnc4ccc(-c5cnc6ccccc6c5)cc4c32)cc1

Compound: Cn1c(=O)n(-c2ccc(C(C)(C)C#N)cc2)c2c3cc(-c4cnc5ccccc5c4)ccc3ncc21 [DACTOLISIB]
IC50 [16]: 4 nM
IC50 [17]: 21 nM
